# Experimental data published in the NIST ThermoML archive (doi:10.1016/j.jct.2008.10.010).
# Numbers after ± are expanded uncertainties.
# Experiment: molar heat capacity at constant pressure; xn = mol fraction of the nth substance listed
# Conditions: 101.3 kPa, Liquid, Small sample (50 mg) DSC
smiles,measurement,setting,value
CCC(C)(C)O [2-methylbutan-2-ol] + CCCCCCC,molar heat capacity at constant pressure,"336.14 K, x1 = 0.1",252.29 ± 3.9 J/K/mol
same,molar heat capacity at constant pressure,"336.14 K, x1 = 0.1547",260.02 ± 4 J/K/mol
same,molar heat capacity at constant pressure,"336.14 K, x1 = 0.1999",265.26 ± 4.1 J/K/mol
same,molar heat capacity at constant pressure,"336.14 K, x1 = 0.2993",273.56 ± 4.2 J/K/mol
same,molar heat capacity at constant pressure,"336.14 K, x1 = 0.4051",279.11 ± 4.3 J/K/mol
same,molar heat capacity at constant pressure,"336.14 K, x1 = 0.4986",282.65 ± 4.4 J/K/mol
same,molar heat capacity at constant pressure,"336.14 K, x1 = 0.5981",285.05 ± 4.4 J/K/mol
same,molar heat capacity at constant pressure,"336.14 K, x1 = 0.7015",286.5 ± 4.4 J/K/mol
same,molar heat capacity at constant pressure,"336.14 K, x1 = 0.8023",286.51 ± 4.4 J/K/mol
same,molar heat capacity at constant pressure,"336.14 K, x1 = 0.9139",285.7 ± 4.4 J/K/mol
same,molar heat capacity at constant pressure,"336.14 K, x1 = 0.9609",284.91 ± 4.4 J/K/mol
same,molar heat capacity at constant pressure,"337.15 K, x1 = 0.0061",240.08 ± 3.7 J/K/mol
same,molar heat capacity at constant pressure,"337.15 K, x1 = 0.0249",241 ± 3.7 J/K/mol
same,molar heat capacity at constant pressure,"337.15 K, x1 = 0.0494",244 ± 3.8 J/K/mol
same,molar heat capacity at constant pressure,"337.15 K, x1 = 0.1",252.41 ± 3.9 J/K/mol
same,molar heat capacity at constant pressure,"337.15 K, x1 = 0.1547",260.16 ± 4 J/K/mol
same,molar heat capacity at constant pressure,"337.15 K, x1 = 0.1999",265.46 ± 4.1 J/K/mol
same,molar heat capacity at constant pressure,"337.15 K, x1 = 0.2993",273.86 ± 4.2 J/K/mol
same,molar heat capacity at constant pressure,"337.15 K, x1 = 0.4051",279.59 ± 4.3 J/K/mol
same,molar heat capacity at constant pressure,"337.15 K, x1 = 0.4986",283.2 ± 4.4 J/K/mol
same,molar heat capacity at constant pressure,"337.15 K, x1 = 0.5981",285.63 ± 4.4 J/K/mol
same,molar heat capacity at constant pressure,"337.15 K, x1 = 0.7015",287.22 ± 4.5 J/K/mol
same,molar heat capacity at constant pressure,"337.15 K, x1 = 0.8023",287.25 ± 4.5 J/K/mol
same,molar heat capacity at constant pressure,"337.15 K, x1 = 0.9139",286.44 ± 4.4 J/K/mol
same,molar heat capacity at constant pressure,"337.15 K, x1 = 0.9609",285.69 ± 4.4 J/K/mol
same,molar heat capacity at constant pressure,"338.14 K, x1 = 0.0061",240.6 ± 3.7 J/K/mol
same,molar heat capacity at constant pressure,"338.14 K, x1 = 0.0249",241.26 ± 3.7 J/K/mol
same,molar heat capacity at constant pressure,"338.14 K, x1 = 0.0494",244.22 ± 3.8 J/K/mol
same,molar heat capacity at constant pressure,"338.14 K, x1 = 0.1",252.49 ± 3.9 J/K/mol
same,molar heat capacity at constant pressure,"338.14 K, x1 = 0.2993",274.14 ± 4.2 J/K/mol
same,molar heat capacity at constant pressure,"338.14 K, x1 = 0.4051",280.08 ± 4.3 J/K/mol
same,molar heat capacity at constant pressure,"338.14 K, x1 = 0.4986",283.63 ± 4.4 J/K/mol
same,molar heat capacity at constant pressure,"338.14 K, x1 = 0.5981",286.18 ± 4.4 J/K/mol
same,molar heat capacity at constant pressure,"338.14 K, x1 = 0.7015",287.86 ± 4.5 J/K/mol
same,molar heat capacity at constant pressure,"338.14 K, x1 = 0.8023",287.94 ± 4.5 J/K/mol
same,molar heat capacity at constant pressure,"338.14 K, x1 = 0.9139",287.19 ± 4.5 J/K/mol
same,molar heat capacity at constant pressure,"338.16 K, x1 = 0.1547",260.35 ± 4 J/K/mol
same,molar heat capacity at constant pressure,"338.16 K, x1 = 0.1999",265.67 ± 4.1 J/K/mol
same,molar heat capacity at constant pressure,"338.16 K, x1 = 0.9609",286.41 ± 4.4 J/K/mol
same,molar heat capacity at constant pressure,"339.14 K, x1 = 0.0061",241 ± 3.7 J/K/mol
same,molar heat capacity at constant pressure,"339.14 K, x1 = 0.0249",241.65 ± 3.7 J/K/mol
same,molar heat capacity at constant pressure,"339.14 K, x1 = 0.0494",244.45 ± 3.8 J/K/mol
same,molar heat capacity at constant pressure,"339.14 K, x1 = 0.1",252.62 ± 3.9 J/K/mol
same,molar heat capacity at constant pressure,"339.14 K, x1 = 0.1547",260.43 ± 4 J/K/mol
same,molar heat capacity at constant pressure,"339.14 K, x1 = 0.1999",265.8 ± 4.1 J/K/mol
same,molar heat capacity at constant pressure,"339.14 K, x1 = 0.2993",274.34 ± 4.2 J/K/mol
same,molar heat capacity at constant pressure,"339.14 K, x1 = 0.4051",280.35 ± 4.3 J/K/mol
same,molar heat capacity at constant pressure,"339.14 K, x1 = 0.4986",284.12 ± 4.4 J/K/mol
same,molar heat capacity at constant pressure,"339.14 K, x1 = 0.5981",286.77 ± 4.4 J/K/mol
same,molar heat capacity at constant pressure,"339.14 K, x1 = 0.7015",288.43 ± 4.5 J/K/mol
same,molar heat capacity at constant pressure,"339.14 K, x1 = 0.8023",288.55 ± 4.5 J/K/mol
same,molar heat capacity at constant pressure,"339.14 K, x1 = 0.9139",287.89 ± 4.5 J/K/mol
same,molar heat capacity at constant pressure,"339.14 K, x1 = 0.9609",287.02 ± 4.5 J/K/mol
same,molar heat capacity at constant pressure,"340.15 K, x1 = 0.0061",241.53 ± 3.7 J/K/mol
same,molar heat capacity at constant pressure,"340.15 K, x1 = 0.0249",242.15 ± 3.8 J/K/mol
same,molar heat capacity at constant pressure,"340.15 K, x1 = 0.0494",244.83 ± 3.8 J/K/mol
same,molar heat capacity at constant pressure,"340.15 K, x1 = 0.1",252.82 ± 3.9 J/K/mol
same,molar heat capacity at constant pressure,"340.15 K, x1 = 0.1547",260.57 ± 4 J/K/mol
same,molar heat capacity at constant pressure,"340.15 K, x1 = 0.1999",266.02 ± 4.1 J/K/mol
same,molar heat capacity at constant pressure,"340.15 K, x1 = 0.2993",274.71 ± 4.3 J/K/mol
same,molar heat capacity at constant pressure,"340.15 K, x1 = 0.4051",280.76 ± 4.3 J/K/mol
same,molar heat capacity at constant pressure,"340.15 K, x1 = 0.4986",284.68 ± 4.4 J/K/mol
same,molar heat capacity at constant pressure,"340.15 K, x1 = 0.5981",287.28 ± 4.5 J/K/mol
same,molar heat capacity at constant pressure,"340.15 K, x1 = 0.7015",289.07 ± 4.5 J/K/mol
same,molar heat capacity at constant pressure,"340.15 K, x1 = 0.8023",289.24 ± 4.5 J/K/mol
same,molar heat capacity at constant pressure,"340.15 K, x1 = 0.9139",288.58 ± 4.5 J/K/mol
same,molar heat capacity at constant pressure,"340.15 K, x1 = 0.9609",287.73 ± 4.5 J/K/mol
same,molar heat capacity at constant pressure,"341.14 K, x1 = 0.0249",242.51 ± 3.8 J/K/mol
same,molar heat capacity at constant pressure,"341.14 K, x1 = 0.9139",289.17 ± 4.5 J/K/mol
same,molar heat capacity at constant pressure,"341.16 K, x1 = 0.0061",241.89 ± 3.8 J/K/mol
same,molar heat capacity at constant pressure,"341.16 K, x1 = 0.0494",245.03 ± 3.8 J/K/mol
same,molar heat capacity at constant pressure,"341.16 K, x1 = 0.1",252.79 ± 3.9 J/K/mol
same,molar heat capacity at constant pressure,"341.16 K, x1 = 0.1547",260.64 ± 4 J/K/mol
same,molar heat capacity at constant pressure,"341.16 K, x1 = 0.1999",266.06 ± 4.1 J/K/mol
same,molar heat capacity at constant pressure,"341.16 K, x1 = 0.2993",274.84 ± 4.3 J/K/mol
same,molar heat capacity at constant pressure,"341.16 K, x1 = 0.4051",281 ± 4.3 J/K/mol
same,molar heat capacity at constant pressure,"341.16 K, x1 = 0.4986",284.87 ± 4.4 J/K/mol
same,molar heat capacity at constant pressure,"341.16 K, x1 = 0.5981",287.66 ± 4.5 J/K/mol
same,molar heat capacity at constant pressure,"341.16 K, x1 = 0.7015",289.5 ± 4.5 J/K/mol
same,molar heat capacity at constant pressure,"341.16 K, x1 = 0.8023",289.74 ± 4.5 J/K/mol
same,molar heat capacity at constant pressure,"341.16 K, x1 = 0.9609",288.3 ± 4.5 J/K/mol
same,molar heat capacity at constant pressure,"342.14 K, x1 = 0.0061",242.38 ± 3.8 J/K/mol
same,molar heat capacity at constant pressure,"342.14 K, x1 = 0.0249",242.91 ± 3.8 J/K/mol
same,molar heat capacity at constant pressure,"342.14 K, x1 = 0.0494",245.35 ± 3.8 J/K/mol
same,molar heat capacity at constant pressure,"342.14 K, x1 = 0.1",253 ± 3.9 J/K/mol
same,molar heat capacity at constant pressure,"342.14 K, x1 = 0.1547",260.67 ± 4 J/K/mol
same,molar heat capacity at constant pressure,"342.14 K, x1 = 0.1999",266.17 ± 4.1 J/K/mol
same,molar heat capacity at constant pressure,"342.14 K, x1 = 0.2993",275.1 ± 4.3 J/K/mol
same,molar heat capacity at constant pressure,"342.14 K, x1 = 0.4051",281.32 ± 4.4 J/K/mol
same,molar heat capacity at constant pressure,"342.14 K, x1 = 0.4986",285.37 ± 4.4 J/K/mol
same,molar heat capacity at constant pressure,"342.14 K, x1 = 0.5981",288.22 ± 4.5 J/K/mol
same,molar heat capacity at constant pressure,"342.14 K, x1 = 0.7015",290.08 ± 4.5 J/K/mol
same,molar heat capacity at constant pressure,"342.14 K, x1 = 0.8023",290.39 ± 4.5 J/K/mol
same,molar heat capacity at constant pressure,"342.14 K, x1 = 0.9139",289.86 ± 4.5 J/K/mol
same,molar heat capacity at constant pressure,"342.14 K, x1 = 0.9609",288.96 ± 4.5 J/K/mol
same,molar heat capacity at constant pressure,"343.15 K, x1 = 0.0061",242.71 ± 3.8 J/K/mol
same,molar heat capacity at constant pressure,"343.15 K, x1 = 0.0249",243.18 ± 3.8 J/K/mol
same,molar heat capacity at constant pressure,"343.15 K, x1 = 0.0494",245.62 ± 3.8 J/K/mol
same,molar heat capacity at constant pressure,"343.15 K, x1 = 0.1",253.03 ± 3.9 J/K/mol
same,molar heat capacity at constant pressure,"343.15 K, x1 = 0.1547",260.73 ± 4 J/K/mol
same,molar heat capacity at constant pressure,"343.15 K, x1 = 0.1999",266.34 ± 4.1 J/K/mol
same,molar heat capacity at constant pressure,"343.15 K, x1 = 0.2993",275.23 ± 4.3 J/K/mol
same,molar heat capacity at constant pressure,"343.15 K, x1 = 0.4051",281.6 ± 4.4 J/K/mol
same,molar heat capacity at constant pressure,"343.15 K, x1 = 0.4986",285.7 ± 4.4 J/K/mol
same,molar heat capacity at constant pressure,"343.15 K, x1 = 0.5981",288.61 ± 4.5 J/K/mol
same,molar heat capacity at constant pressure,"343.15 K, x1 = 0.7015",290.51 ± 4.5 J/K/mol
same,molar heat capacity at constant pressure,"343.15 K, x1 = 0.8023",290.89 ± 4.5 J/K/mol
same,molar heat capacity at constant pressure,"343.15 K, x1 = 0.9139",290.38 ± 4.5 J/K/mol
same,molar heat capacity at constant pressure,"343.15 K, x1 = 0.9609",289.53 ± 4.5 J/K/mol
same,molar heat capacity at constant pressure,"344.16 K, x1 = 0.0061",243.26 ± 3.8 J/K/mol
same,molar heat capacity at constant pressure,"344.16 K, x1 = 0.0249",243.63 ± 3.8 J/K/mol
same,molar heat capacity at constant pressure,"344.16 K, x1 = 0.0494",245.97 ± 3.8 J/K/mol
same,molar heat capacity at constant pressure,"344.16 K, x1 = 0.1",253.15 ± 3.9 J/K/mol
same,molar heat capacity at constant pressure,"344.16 K, x1 = 0.1547",260.83 ± 4 J/K/mol
same,molar heat capacity at constant pressure,"344.16 K, x1 = 0.1999",266.48 ± 4.1 J/K/mol
same,molar heat capacity at constant pressure,"344.16 K, x1 = 0.2993",275.42 ± 4.3 J/K/mol
same,molar heat capacity at constant pressure,"344.16 K, x1 = 0.4051",281.89 ± 4.4 J/K/mol
same,molar heat capacity at constant pressure,"344.16 K, x1 = 0.4986",286.07 ± 4.4 J/K/mol
same,molar heat capacity at constant pressure,"344.16 K, x1 = 0.5981",289.06 ± 4.5 J/K/mol
same,molar heat capacity at constant pressure,"344.16 K, x1 = 0.7015",291.07 ± 4.5 J/K/mol
same,molar heat capacity at constant pressure,"344.16 K, x1 = 0.8023",291.49 ± 4.5 J/K/mol
same,molar heat capacity at constant pressure,"344.16 K, x1 = 0.9139",291.02 ± 4.5 J/K/mol
same,molar heat capacity at constant pressure,"344.16 K, x1 = 0.9609",290.18 ± 4.5 J/K/mol
same,molar heat capacity at constant pressure,"345.14 K, x1 = 0.0061",243.73 ± 3.8 J/K/mol
